Results: US8263095B2, “Methods of use for peptides having activities of insulin like growth factor-1” (Caregen Co., Ltd., priority 2006, dated 2012)
Bridge positions count the residues as written; N and C are the ends. Ends that are not written are not given here. * marks the point of attachment. FITC = O=C1OC2(c3ccc(O)cc3Oc3cc(O)ccc32)c2ccc(NC(=S)*)cc21; βAla = NCCC(=O)O

Test system: receptors on surface of 3T3 fibroblasts
Assay: Binding of fluorescence-labeled peptide to receptors on fibroblasts
Conditions: 1 mg/ml, 1 hr incubation, fluorescence and optical microscopy
Protocol: 3T3 fibroblasts were cultured in 250 ml-flasks containing EMEM (Eagle's minimal essential media, Gibco, U.S.A.) supplemented with […] FBS (fetal bovine serum). After 48-hr culture, the supernatant of the medium was discarded and the remainder was washed once with PBS (phosphate buffered saline). FITC-b-Ala-CDLRRLEMYC prepared in Preparation Example 4 was dissolved in DMSO and PBS to a concentration of 1 mg/ml and incubated for 1 hr with cells cultured. After removing medium, cells were completely washed and their surface was observed under fluorescence and optical microscopes.

FITC-b-Ala-Cys-Asp-Leu-Arg-Arg-Leu-Glu-Met-Tyr-Cys ({FITC-βAla}-CDLRRLEMYC; disulfide 1-10) [FITC-labeled peptide]
binding of the FITC-labeled peptide to receptors on cell (FIG. 12): binds to receptors on surface of fibroblasts
